Data from patent EP0194548A2, “Sulfonylaminoethyl compounds, medicines containing these compounds and process for their preparation” (Dr. Karl Thomae GmbH, priority 1985, dated 1986).
pEC50: −log10 of the molar value.

How the values were obtained:
Mäusen [1] = assay: Prolongation of bleeding time (tail tip cut) after oral dosing; type: in vivo; conditions: conscious mice, 10 mg/kg p.o., 1 hour after dosing, 5 animals per test, versus controls without substance
Description: Da im Falle einer Verletzung die erste rasche Blutstillung durch Thrombozyten geschieht, läßt sich beim Setzen einer standardisierten Verletzung die Funktion der Thrombozylen mit Hilfe der Messung der Blutungszeit gut bestimmen. Die normale Blutungszeit beträgt beim Menschen etwa 1 bis 3 min., setzt aber leistungsfähige und in genügender Zahl vorhandene Thrombozyten voraus. Bei einer normalen Thrombozytenzahl weist also eine verlängerte Blutungszeit auf eine gestörte Funktion der Thrombozyten hin. Wir finden dies z.B. bei einigen angeborenen Thrombozytenfunktionsstörungen. Will man auf der anderen Seite die Neigung zu spontanem Zusammenballen der Thrombozyten mit der Folge von Gefäßverschlüssen im arteriellen System durch Medikamente verhindern, so muß folglich bei einer erfolgreichen thrombozytenwirksamen Therapie die Blutungszeit unter Substanzeinfluß verlängert werden. Bei einer thrombozytenwirksamen Substanz ist also eine Verlängerung der Blutungszeit und - da das plasmatische Gerinnungssystem ja nicht berührt wird -eine normale Blutgerinnungszeit zu erwarten.
Zur Bestimmung der Blutungszeit wurden die zu untersuchenden Substanzen wachen Mäusen in einer Dosis von 10 mg/kg p.o. appliziert. Nach einer Stunde wurde von der Schwanzspitze jedes Tieres ca. 0,5 mm abgeschnitten und das austretende Blut in Abständen von 30 Sekunden bis zum Sistieren der Blutung vorsichtig mit einem Filterpapier abgetupft. Die Zahl der so erhaltenen Bluttropfen ergibt ein Maß für die Blutungszeit (5 Tiere pro Versuch). Die folgenden Zahlenangaben bedeuten Prozent-Verlängerung gegenüber Kontrollen ohne Substanzgabe: […]

Mäusen [2] = assay: Orientating acute toxicity after a single oral dose; type: in vivo; conditions: mice, groups of 10, observation time 14 days
Excerpt: Die akute Toxizität der zu untersuchenden Substanzen wurde orientierend an Gruppen von je 10 Mäusen nach oraler Gabe einer Einzeldosis bestimmt (Beobachtungszeit 14 Tage): […]

[3] = system: Thrombozytenaggregation in plättchenreichem Plasma; assay: Collagen-induced platelet aggregation (method of BORN and GROSS) in platelet-rich plasma; type: cell-based, Versuchspersonen; conditions: 10 min, plasma incubated 10 min with substance at 37°C, 50% change of optical density
Excerpt: Die Thrombozytenaggregation wird nach der Methode von BORN und GROSS (J. Physiol. 170, 397 (1964)) in plättchenreichem Plasma gesunder Versuchspersonen gemessen. Zur Gerinnungshemmung wird das Blut mit […] 3,14 % im Volumenverhältnis 1:10 versetzt
Collagen-induzierte Aggregation
Der Verlauf der Abnahme der optischen Dichte der Plättchensuspension wird nach Zugabe der aggregationsauslösenden Substanz photometrisch gemessen und registriert. Aus dem Neigungswinkel der Dichtekurve wird auf die Aggregationsgeschwindigkeit geschlossen. Der Punkt der Kurve, bei dem die größte Lichtdurchlässigkeit vorliegt, dient zur Berechnung der "optical dens^ity".
Die Collagen-Menge wird möglichst gering gewählt, aber doch so, daß sich eine irreversibel verlaufende Reaktionskurve ergibt. Verwendet wird das handelsübliche Collagen der Firma Hormonchemie, München.
Vor der Collagen-Zugabe wird das Plasma jeweils 10 Minuten mit der Substanz bei 37°C inkubiert.
Aus den erhaltenen Meßzahlen wird graphisch eine EC50 berechnet, die sich auf eine 50%ige Änderung der "optical density" im Sinne einer Aggregationshemmung bezieht.

Row | SMILES | Verlängerung der Blutungszeit in % nach 1 Stunde (Mäusen [1]) | Orientierende akute Toxizität (Mäusen [2]; single oral dose 1.000 mg) | pEC50 [3] | Orientierende akute Toxizität (Mäusen [2]; single oral dose 250 mg)
1 | O=C1CCC(c2ccc(OCCNS(=O)(=O)c3ccccc3)cc2)=NN1 [Substanz E, 6-[4-(2-Benzolsulfonylaminoäthoxy)-phenyl]-4,5-dihydro-pyridazin-(2H)-3-on] | 233% | 1.000 mg (0 von 10 Tieren gestorben) | 5.52 | 
2 | O=C(O)CCC(=O)c1ccc(CCNS(=O)(=O)c2ccccc2)cc1 [Substanz F, 3-[4-(2-Benzolsulfonylamino-äthyl)-benzoyl]-propionsäure] | >266% |  | 5.52 | 250 mg (0 von 10 Tieren gestorben)
3 | COCCOC(=O)CCC(=O)c1ccc(CCNS(=O)(=O)c2ccccc2)cc1 [Substanz B, 3-[4-(2-Benzolsulfonylaminoäthyl)-benzoyl]-propionsäure-ß-methoxyäthylester] | 110% | 1.000 mg (0 von 10 Tieren gestorben) | < 5.00 | 
4 | O=C(O)CCC(=O)c1ccc(CCNS(=O)(=O)c2ccc(Cl)cc2)cc1 [Substanz A, 3-[4-(2-(4-Chlorbenzolsulfonyl)-aminoäthyl)-benzoyl]-propionsäure] | 108% | 1.000 mg (0 von 10 Tieren gestorben) | 5.40 | 
5 | Cc1ccc(S(=O)(=O)NCCc2ccc(C3=NNC(=O)CC3C)cc2)cc1 (stereo not drawn) [Substanz D, 6-[4-(2-(p-Toluolsulfonyl)-aminoäthyl)-phenyl]-5-methyl-4,5-dihydro-pyridazin-(2H)-3-on] | 187% | 1.000 mg (0 von 10 Tieren gestorben) | 5.62 | 
6 | O=C1CCC(c2ccc(CCNS(=O)(=O)c3ccccc3)cc2)=NN1 [Substanz C, 6-[4-(2-Benzoylsulfonylaminoäthyl)-phenyl]-4,5-dihydro-pyridazin-(2H)-3-on] | 145% | 1.000 mg (0 von 10 Tieren gestorben) | 5.48 | 
